# Source: patent US7807684B2, “HIV reverse transcriptase inhibitors” (Merck Sharp & Dohme Corp., priority 2005, dated 2010)
# Assay: Oral dosing to rats, bioavailability
# Type: in vivo
# Conditions: compared to analogous dosing of the compound of Example 36
smiles,measurement,value
"CNCCN(C)C(=O)n1nc(COc2ccc(Cl)c(Oc3cc(Cl)cc(C#N)c3)c2)c2cccnc21.Cl [Example 59, 2-[[(3-{[4-chloro-3-(3-chloro-5-cyanophenoxy)phenoxy]methyl}-1H-pyrazolo[3,4-b]pyridin-1-yl)carbonyl](methyl)amino]-N-methylethanaminium chloride]",Bioavailability,substantially higher bioavailability
